We go through eleven molecules from ChEMBL document CHEMBL5465560, “Selectivity Literature for EUbOPEN Chemogenomic Library” (2024).

Experiment [1] deals with T1, Serine/threonine-protein kinase DCLK2 (Homo sapiens) (UniProt Q8N568).
T1 sequence (whole entry): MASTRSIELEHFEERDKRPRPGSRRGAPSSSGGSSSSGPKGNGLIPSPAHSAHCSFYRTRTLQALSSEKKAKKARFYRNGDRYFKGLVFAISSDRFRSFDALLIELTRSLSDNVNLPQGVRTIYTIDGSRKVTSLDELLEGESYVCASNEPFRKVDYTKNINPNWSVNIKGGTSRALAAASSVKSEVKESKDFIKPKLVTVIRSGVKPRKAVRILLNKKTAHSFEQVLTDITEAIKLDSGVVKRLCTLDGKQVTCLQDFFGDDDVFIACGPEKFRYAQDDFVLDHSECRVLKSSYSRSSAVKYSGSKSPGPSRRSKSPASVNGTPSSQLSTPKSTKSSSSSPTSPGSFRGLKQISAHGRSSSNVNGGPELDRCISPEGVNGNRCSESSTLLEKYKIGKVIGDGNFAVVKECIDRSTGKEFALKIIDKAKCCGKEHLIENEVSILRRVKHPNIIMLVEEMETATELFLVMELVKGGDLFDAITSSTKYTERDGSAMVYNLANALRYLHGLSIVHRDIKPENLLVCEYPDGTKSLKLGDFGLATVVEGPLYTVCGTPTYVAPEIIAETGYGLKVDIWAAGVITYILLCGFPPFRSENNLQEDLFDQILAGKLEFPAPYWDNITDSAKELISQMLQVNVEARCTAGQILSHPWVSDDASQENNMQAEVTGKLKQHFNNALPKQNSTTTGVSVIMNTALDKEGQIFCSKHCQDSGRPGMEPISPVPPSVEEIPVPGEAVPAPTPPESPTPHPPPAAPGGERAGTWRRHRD
The following applies: at 10 µM.

In experiment [2] the target is LIM domain kinase 2 (Homo sapiens) (UniProt P53671). Put plainly: Selectivity interaction (KinomeScan (DiscoverX)) EUB0000092b LIMK2. The following applies: at 10 µM.
LIM domain kinase 2 (Homo sapiens), sequence (P53671 whole entry, looked up, the tested form may be a part): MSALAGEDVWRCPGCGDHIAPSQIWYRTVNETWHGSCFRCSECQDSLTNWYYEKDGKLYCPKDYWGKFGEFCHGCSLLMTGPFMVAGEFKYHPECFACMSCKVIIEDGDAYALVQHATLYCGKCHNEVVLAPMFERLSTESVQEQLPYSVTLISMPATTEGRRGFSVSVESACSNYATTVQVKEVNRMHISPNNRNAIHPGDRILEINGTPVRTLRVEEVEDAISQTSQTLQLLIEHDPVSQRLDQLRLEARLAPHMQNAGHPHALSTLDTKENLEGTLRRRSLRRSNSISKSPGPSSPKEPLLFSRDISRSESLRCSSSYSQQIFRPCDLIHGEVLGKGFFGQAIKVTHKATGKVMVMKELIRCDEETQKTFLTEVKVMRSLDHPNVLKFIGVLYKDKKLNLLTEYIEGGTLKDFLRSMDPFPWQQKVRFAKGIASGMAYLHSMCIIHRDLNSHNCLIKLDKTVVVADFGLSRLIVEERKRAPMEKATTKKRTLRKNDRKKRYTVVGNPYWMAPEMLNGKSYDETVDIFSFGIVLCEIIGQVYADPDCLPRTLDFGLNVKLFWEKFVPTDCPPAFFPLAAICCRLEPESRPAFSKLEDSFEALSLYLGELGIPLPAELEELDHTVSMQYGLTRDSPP
For experiment [3], the target named is Insulin receptor-related protein (Homo sapiens) (UniProt P14616). Put plainly: Selectivity interaction (KinomeScan (DiscoverX)) EUB0000655a INSRR. The following applies: at 10 µM.
In experiment [4] the target is Fibroblast growth factor receptor 3 (Homo sapiens, UniProt P22607). The experiment in a line: (§1) Selectivity interaction (KinomeScan (DiscoverX)) EUB0000695a FGFR3. The following applies: at 100 nM.
Fibroblast growth factor receptor 3, sequence (P22607 23-806 limits assumed): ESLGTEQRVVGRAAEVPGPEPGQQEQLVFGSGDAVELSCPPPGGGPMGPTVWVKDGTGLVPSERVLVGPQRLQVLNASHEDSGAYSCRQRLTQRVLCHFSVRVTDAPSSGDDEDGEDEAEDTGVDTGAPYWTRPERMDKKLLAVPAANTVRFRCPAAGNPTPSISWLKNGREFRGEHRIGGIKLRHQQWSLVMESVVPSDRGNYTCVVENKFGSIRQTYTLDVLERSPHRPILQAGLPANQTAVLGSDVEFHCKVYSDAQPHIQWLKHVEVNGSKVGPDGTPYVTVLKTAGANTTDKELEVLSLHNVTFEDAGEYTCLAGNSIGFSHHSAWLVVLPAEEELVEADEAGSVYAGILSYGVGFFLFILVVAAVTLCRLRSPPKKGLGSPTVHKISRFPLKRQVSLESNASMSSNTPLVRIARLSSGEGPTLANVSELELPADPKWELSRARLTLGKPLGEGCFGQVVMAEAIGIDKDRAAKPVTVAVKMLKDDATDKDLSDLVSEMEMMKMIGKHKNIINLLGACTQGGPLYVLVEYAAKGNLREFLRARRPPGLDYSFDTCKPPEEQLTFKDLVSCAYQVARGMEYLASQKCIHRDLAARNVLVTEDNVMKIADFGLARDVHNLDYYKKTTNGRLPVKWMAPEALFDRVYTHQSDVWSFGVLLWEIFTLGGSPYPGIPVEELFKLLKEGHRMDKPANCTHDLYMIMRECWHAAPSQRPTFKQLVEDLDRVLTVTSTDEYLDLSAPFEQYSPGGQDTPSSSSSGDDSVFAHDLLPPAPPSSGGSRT
Experiment [5] deals with Fibroblast growth factor receptor 3 (Homo sapiens), P22607 [G697C]. The experiment is described as §1. The following applies: at 100 nM.
For experiment [6], the target named is TGF-beta receptor type-2 (Homo sapiens) (UniProt P37173). Put plainly: Selectivity interaction (KinomeScan (DiscoverX)) EUB0000666a TGFBR2. The following applies: at 10 µM.
TGF-beta receptor type-2 (Homo sapiens), sequence (P37173 whole entry): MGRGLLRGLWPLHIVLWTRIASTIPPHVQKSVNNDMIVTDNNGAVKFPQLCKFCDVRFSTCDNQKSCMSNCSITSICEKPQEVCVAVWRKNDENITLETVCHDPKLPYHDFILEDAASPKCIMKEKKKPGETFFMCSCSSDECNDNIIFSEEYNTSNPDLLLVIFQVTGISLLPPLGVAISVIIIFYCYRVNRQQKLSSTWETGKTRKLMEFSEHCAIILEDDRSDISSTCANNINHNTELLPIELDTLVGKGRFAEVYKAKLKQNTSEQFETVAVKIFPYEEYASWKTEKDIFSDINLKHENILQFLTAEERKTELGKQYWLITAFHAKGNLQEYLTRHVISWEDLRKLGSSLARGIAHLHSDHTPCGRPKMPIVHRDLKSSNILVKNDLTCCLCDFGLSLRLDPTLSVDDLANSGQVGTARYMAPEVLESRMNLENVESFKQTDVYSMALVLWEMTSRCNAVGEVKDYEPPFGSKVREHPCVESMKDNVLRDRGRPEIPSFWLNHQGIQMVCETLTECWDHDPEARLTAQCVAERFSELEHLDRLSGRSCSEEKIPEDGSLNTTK
The target in experiment [7] is Ribosomal protein S6 kinase alpha-2 (Homo sapiens) (UniProt Q15349). The experiment in a line: Selectivity interaction (KinomeScan (DiscoverX)) EUB0000607a RPS6KA2. The following applies: at 10 µM.
Experiment [8] has as its target Casein kinase I isoform gamma-3 (Homo sapiens) (UniProt Q9Y6M4). Put plainly: Selectivity interaction (Kinase panel (Invitrogen)) EUB0000639a CSNK1G3. The following applies: at 200 nM.
The test system of experiment [9] is T2, Receptor-type tyrosine-protein kinase FLT3 (Homo sapiens), P36888 [D835V].
T2 sequence (whole entry): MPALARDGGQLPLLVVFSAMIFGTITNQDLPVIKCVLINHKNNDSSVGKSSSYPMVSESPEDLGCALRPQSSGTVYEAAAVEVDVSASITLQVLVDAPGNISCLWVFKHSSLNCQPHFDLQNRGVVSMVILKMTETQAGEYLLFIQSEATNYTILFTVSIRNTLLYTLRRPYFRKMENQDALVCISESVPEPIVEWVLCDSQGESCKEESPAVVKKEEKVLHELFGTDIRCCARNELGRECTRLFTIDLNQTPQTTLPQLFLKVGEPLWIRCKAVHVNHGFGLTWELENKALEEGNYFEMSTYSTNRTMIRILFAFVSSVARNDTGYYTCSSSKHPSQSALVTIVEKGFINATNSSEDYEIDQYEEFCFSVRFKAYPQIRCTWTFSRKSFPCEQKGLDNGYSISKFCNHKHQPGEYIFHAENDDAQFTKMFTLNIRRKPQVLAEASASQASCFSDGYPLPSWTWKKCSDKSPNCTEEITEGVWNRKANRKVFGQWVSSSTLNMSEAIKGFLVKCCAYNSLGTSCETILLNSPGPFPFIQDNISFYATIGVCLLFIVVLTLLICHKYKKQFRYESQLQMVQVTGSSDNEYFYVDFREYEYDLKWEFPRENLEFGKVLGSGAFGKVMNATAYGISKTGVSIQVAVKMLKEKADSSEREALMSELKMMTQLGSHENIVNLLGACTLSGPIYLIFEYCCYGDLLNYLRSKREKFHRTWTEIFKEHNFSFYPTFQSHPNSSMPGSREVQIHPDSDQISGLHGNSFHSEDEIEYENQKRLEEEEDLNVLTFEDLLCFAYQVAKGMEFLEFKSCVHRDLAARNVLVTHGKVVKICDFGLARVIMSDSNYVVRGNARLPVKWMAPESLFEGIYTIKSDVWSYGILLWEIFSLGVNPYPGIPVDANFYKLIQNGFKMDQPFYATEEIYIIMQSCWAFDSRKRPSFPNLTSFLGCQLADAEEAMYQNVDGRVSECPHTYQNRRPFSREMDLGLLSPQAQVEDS
Put plainly: Selectivity interaction (KinomeScan (DiscoverX)) EUB0000229b FLT3. The following applies: at 1 µM.

Experiment [10] deals with Serine/threonine-protein kinase PAK 2 (Homo sapiens) (UniProt Q13177). Put plainly: Selectivity interaction (KinomeScan (DiscoverX)) EUB0000595a PAK2. The following applies: at 10 µM.
Experiment [11] addresses Citron Rho-interacting kinase (Homo sapiens) (UniProt O14578). Put plainly: Selectivity interaction (KinomeScan (DiscoverX)) EUB0001619a CIT. The following applies: at 1 µM.
Experiment [12] deals with Calcium/calmodulin-dependent protein kinase type 1D (Homo sapiens) (UniProt Q8IU85). Put plainly: Selectivity interaction (KinomeScan (DiscoverX)) EUB0000618a CAMK1D. The following applies: at 10 µM.
Calcium/calmodulin-dependent protein kinase type 1D (Homo sapiens), sequence (Q8IU85 whole entry, looked up): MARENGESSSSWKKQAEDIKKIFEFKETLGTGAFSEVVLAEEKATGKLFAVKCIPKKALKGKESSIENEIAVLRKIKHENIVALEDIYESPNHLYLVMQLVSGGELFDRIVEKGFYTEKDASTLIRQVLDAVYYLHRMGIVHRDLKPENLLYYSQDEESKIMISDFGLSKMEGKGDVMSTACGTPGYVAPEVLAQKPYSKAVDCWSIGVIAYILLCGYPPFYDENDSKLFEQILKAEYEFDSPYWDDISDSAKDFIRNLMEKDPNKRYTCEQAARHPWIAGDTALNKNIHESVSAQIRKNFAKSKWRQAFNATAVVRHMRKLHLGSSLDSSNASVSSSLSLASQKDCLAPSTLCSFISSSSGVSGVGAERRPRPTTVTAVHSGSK
Experiment [13] in a line: Selectivity interaction (KinomeScan (DiscoverX)) EUB0000618a CDPK1. The following applies: at 10 µM.

Casein kinase I isoform gamma-3 (Homo sapiens), sequence (Q9Y6M4 whole entry, looked up, canonical isoform): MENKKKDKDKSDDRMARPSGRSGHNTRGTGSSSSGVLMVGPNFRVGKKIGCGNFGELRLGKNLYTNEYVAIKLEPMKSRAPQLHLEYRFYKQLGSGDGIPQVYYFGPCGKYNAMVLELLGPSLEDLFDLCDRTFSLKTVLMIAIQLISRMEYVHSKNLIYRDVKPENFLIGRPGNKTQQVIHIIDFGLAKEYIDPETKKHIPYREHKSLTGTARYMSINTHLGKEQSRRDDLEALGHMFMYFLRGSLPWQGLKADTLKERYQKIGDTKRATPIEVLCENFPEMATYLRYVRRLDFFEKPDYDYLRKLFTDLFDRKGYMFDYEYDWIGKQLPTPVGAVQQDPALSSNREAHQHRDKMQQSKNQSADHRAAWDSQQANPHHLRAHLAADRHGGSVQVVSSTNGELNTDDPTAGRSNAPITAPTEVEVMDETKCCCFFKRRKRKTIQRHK
Citron Rho-interacting kinase (Homo sapiens), sequence (O14578 whole entry): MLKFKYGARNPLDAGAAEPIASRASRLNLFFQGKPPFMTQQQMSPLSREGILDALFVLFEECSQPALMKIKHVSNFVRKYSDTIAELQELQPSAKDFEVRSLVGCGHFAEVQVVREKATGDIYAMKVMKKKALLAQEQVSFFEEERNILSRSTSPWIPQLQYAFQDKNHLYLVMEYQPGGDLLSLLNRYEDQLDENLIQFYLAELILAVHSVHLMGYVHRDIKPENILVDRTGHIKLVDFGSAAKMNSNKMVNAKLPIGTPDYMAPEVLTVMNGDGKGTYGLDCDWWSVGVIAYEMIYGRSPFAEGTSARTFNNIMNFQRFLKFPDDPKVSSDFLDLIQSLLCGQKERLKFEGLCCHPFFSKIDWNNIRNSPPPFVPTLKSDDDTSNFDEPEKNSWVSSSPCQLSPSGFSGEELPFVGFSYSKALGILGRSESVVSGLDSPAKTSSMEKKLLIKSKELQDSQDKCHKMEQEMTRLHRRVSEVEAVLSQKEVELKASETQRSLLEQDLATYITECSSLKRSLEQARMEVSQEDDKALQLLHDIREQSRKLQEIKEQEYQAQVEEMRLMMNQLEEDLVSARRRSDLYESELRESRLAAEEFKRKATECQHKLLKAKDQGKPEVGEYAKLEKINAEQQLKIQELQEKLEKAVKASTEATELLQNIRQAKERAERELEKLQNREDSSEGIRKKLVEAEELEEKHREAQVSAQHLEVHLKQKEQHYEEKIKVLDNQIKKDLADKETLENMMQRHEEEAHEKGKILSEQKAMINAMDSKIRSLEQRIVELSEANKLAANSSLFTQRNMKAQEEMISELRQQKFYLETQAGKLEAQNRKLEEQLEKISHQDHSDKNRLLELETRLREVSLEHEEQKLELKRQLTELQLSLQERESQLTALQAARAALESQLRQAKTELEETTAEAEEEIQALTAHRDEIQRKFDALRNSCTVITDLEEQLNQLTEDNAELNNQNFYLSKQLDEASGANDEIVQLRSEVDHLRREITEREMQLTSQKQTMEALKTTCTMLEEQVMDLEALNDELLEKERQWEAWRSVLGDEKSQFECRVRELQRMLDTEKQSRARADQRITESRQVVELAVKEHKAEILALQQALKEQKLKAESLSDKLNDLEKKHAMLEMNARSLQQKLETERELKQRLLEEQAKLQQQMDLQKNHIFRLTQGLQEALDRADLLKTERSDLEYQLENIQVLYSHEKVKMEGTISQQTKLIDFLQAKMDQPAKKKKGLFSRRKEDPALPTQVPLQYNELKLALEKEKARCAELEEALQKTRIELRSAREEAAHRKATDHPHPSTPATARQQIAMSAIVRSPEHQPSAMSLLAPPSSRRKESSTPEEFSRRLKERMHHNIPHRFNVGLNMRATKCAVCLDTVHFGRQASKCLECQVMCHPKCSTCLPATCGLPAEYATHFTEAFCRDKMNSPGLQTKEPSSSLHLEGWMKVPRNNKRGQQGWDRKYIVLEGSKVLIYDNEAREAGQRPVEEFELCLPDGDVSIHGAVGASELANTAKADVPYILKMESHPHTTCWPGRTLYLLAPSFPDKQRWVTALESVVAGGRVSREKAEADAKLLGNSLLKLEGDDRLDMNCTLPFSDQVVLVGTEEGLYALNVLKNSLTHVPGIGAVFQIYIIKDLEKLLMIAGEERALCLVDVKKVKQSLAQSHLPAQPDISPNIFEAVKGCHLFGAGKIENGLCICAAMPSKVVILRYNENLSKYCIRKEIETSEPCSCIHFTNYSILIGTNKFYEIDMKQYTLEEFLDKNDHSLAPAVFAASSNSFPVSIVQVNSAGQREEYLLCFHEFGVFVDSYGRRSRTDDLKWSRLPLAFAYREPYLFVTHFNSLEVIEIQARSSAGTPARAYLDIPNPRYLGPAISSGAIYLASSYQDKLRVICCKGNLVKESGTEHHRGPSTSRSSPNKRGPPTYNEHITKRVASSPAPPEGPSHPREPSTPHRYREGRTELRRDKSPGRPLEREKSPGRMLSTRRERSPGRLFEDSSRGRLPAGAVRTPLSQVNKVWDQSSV

In the case of `Cc1cc([C@@H](C)Nc2ccccc2C(=O)O)c2nc(N3CCOCC3)cc(=O)n2c1` [AZD-6482], the % of control in experiment [1] came to 100%.
For the molecule `CCC(=O)N1CCN(c2ccc(-n3c(=O)ccc4cnc5ccc(-c6cnc7ccccc7c6)cc5c43)cc2C(F)(F)F)CC1`, the % of control in [2] was found to be 4.8%.
In experiment [3], `CN(C)CCOc1ccc(-c2nc(-c3ccncc3)c(-c3ccc4c(c3)CC/C4=N\O)[nH]2)cc1` yielded a % of control of 100%.
For the molecule `Cc1cc(F)c(C(=O)Nc2cccc(-c3nncn3C(C)C)n2)cc1-n1cnc(C2CC2)c1`, the results for the % of control in [4] and in experiment [5] were 93% and 88%, respectively.
Turning to `O=C(NOC[C@H](O)CO)c1ccc(F)c(F)c1Nc1ccc(I)cc1F`, the % of control in experiment [6] stood at 100%.
With `CNC(=O)Nc1ccc(-c2nc(N3CC4CCC(C3)O4)c3cnn(C4CCC5(CC4)OCCO5)c3n2)cc1`, the % of control in experiment [7] was determined as 100%.
Turning to `CC[C@@H]1[C@H](F)C(=O)N[C@@H]1COc1nccc2cc(C(N)=O)c(OC)cc12` [ZIMLOVISERTIB], in experiment [8], the % of inhibition amounted to 62.9%.
Regarding `COc1cc(N(C)c2ccnc3ccc(C(F)(F)F)cc23)cc(OC)c1OC`, in experiment [9], the % binding stood at 88%.
For the molecule `COCC(=O)NC/C=C/c1ccc2ncnc(Nc3ccc(Oc4ccc(C)nc4)c(C)c3)c2c1` [CP-724714], in experiment [10], the % of control was 87%.
Turning to `N#Cc1cccc(-c2c[nH]c3ncnc(N4CCOCC4)c23)c1`, the % of control in experiment [11] was 100%.
For `O[C@H]1CC[C@H](Nc2ncc3nc(Nc4c(F)cc(F)cc4F)n([C@H]4CCOC4)c3n2)CC1`, the results for the % of control in [12] and in experiment [13] were 93% and 1.5%, respectively.
